Experimental data published in ChEMBL document CHEMBL3507680, “University of Dundee, Gates Library screen for HepG2 cell viability”.

experiment: Human HepG2 cell viability assay in 384 well format; format: toxicity, cell-based; design: dose 125 nL, time 70.5 hour; cytotoxicity at 70.5 h: concentration not given beside the values; details: HepG2 cells, read-out: Inhibition

Q: Which cytotoxicity at 70.5 h does the source give for `CCn1ccnc1CN(C)Cc1nc(CCC(C)C)no1` here?
A: 1.4%

Q: For `CCS(=O)(=O)CCNCc1cc(O)c2cc(C)cc(C)c2n1`, which cytotoxicity at 70.5 h is on record?
A: 0.215%

Q: With `c1cnc(N2CCC(C3CCN(CCCn4cccn4)C3)CC2)nc1` (stereo unspecified) as the compound, how does the cytotoxicity at 70.5 h read?
A: 0.616%

Q: With `CSCCCN1CCC[C@]2(C(=O)O)CN(c3cnccn3)CC[C@@H]12` as the compound, how does the cytotoxicity at 70.5 h read?
A: 26.4%

Q: With `CC(O)c1cn(C2CCN(C(=O)C3(C)CCN(C)CC3)CC2)nn1` (stereo unspecified) as the compound, how does the cytotoxicity at 70.5 h read?
A: -10.9%

Q: Which cytotoxicity at 70.5 h does the source give for `NC(=O)c1cc(-n2cc(-c3cccc(C(=O)O)c3)cn2)cs1` here?
A: -9.85%

Q: Which cytotoxicity at 70.5 h does the source give for `COc1cccc(C(=O)N2CCN(C(=O)CCCn3ccnc3)CC2)c1` here?
A: 26.1%

Q: For `CC(C)n1cnnc1Cn1c(=O)ccc2ccccc21`, which cytotoxicity at 70.5 h is on record?
A: -2.43%

Q: With `CC(C)OCCCNC(=O)[C@@]12CNC[C@@H]1CN(S(C)(=O)=O)C2` as the compound, how does the cytotoxicity at 70.5 h read?
A: 13.6%

Q: Which cytotoxicity at 70.5 h does the source give for `CC(=O)NCCCC(=O)N1CCc2[nH]c(-c3ccccc3)nc2C1` here?
A: -5.92%

Q: Which cytotoxicity at 70.5 h does the source give for `NC(=O)N1CCCC(C(=O)NCCc2nc(Cc3ccccc3)no2)C1` (stereo unspecified) here?
A: -17.9%

Q: For `COc1ccc(C(=O)N2CCC(Oc3ccccc3)(C(=O)O)CC2)o1`, which cytotoxicity at 70.5 h is on record?
A: 2.93%

Q: Which cytotoxicity at 70.5 h does the source give for `CN(Cc1ncc[nH]1)C(=O)C(C)(C)NC(=O)c1cccs1` here?
A: -3.2%

Q: For `O=C(Nc1ccc2c(c1)OCCO2)N1CCCN(Cc2cccs2)CC1`, which cytotoxicity at 70.5 h is on record?
A: 0.682%

Q: Which cytotoxicity at 70.5 h does the source give for `Cc1ccc(CN(C)C(=O)c2n[nH]c(N)c2-c2ccccc2)o1` here?
A: 28.7%

Q: For `CCc1nc(C)sc1CN1CC[C@](O)(CC)[C@H](O)C1`, which cytotoxicity at 70.5 h is on record?
A: -6.34%

Q: With `COC(=O)C1Cc2nc[nH]c2CN1Cc1ccc(Sc2ncccn2)o1` (stereo unspecified) as the compound, how does the cytotoxicity at 70.5 h read?
A: -0.897%

Q: For `COc1ccc(-c2n[nH]cc2CN(C)CCCN2CCOCC2)c(F)c1`, which cytotoxicity at 70.5 h is on record?
A: -3.86%

Q: Which cytotoxicity at 70.5 h does the source give for `CC(C)(NC(=O)C1CCCN(C2CCCC2)C1)c1nnc(N)s1` (stereo unspecified) here?
A: -3.27%

Q: Which cytotoxicity at 70.5 h does the source give for `CC(=O)N[C@@H]1CN(C(=O)c2csc(C(C)C)n2)C[C@H]1C(C)C` here?
A: -7.11%

Q: Which cytotoxicity at 70.5 h does the source give for `Cc1cccc(=O)n1CCCNc1ncnc2c1CCNCC2` here?
A: -6.31%

Q: For `Cc1cnc(N2CCN(C)CC2)nc1-c1ccnn1C`, which cytotoxicity at 70.5 h is on record?
A: -13.9%

Q: For `O=C(NCCN1CCNC1=O)c1cc(-c2ccc(O)cc2)n[nH]1`, which cytotoxicity at 70.5 h is on record?
A: -10.9%

Q: Which cytotoxicity at 70.5 h does the source give for `COCc1cn(C2CCN(C(=O)Cc3ccsc3)CC2)nn1` here?
A: -9.06%

Q: With `COc1ncccc1C(=O)N1CCCC1c1nc(-c2ccccc2)no1` (stereo unspecified) as the compound, how does the cytotoxicity at 70.5 h read?
A: -5.54%

Q: For `CCCSCC(=O)N1CCC2(CC1)CC(c1ccccc1)CN(C)C2` (stereo unspecified), which cytotoxicity at 70.5 h is on record?
A: 4.01%

Q: For `c1ccc(CCNc2ncnc3c2CCN(Cc2c[nH]cn2)CC3)cc1`, which cytotoxicity at 70.5 h is on record?
A: -0.00958%

Q: Which cytotoxicity at 70.5 h does the source give for `Cc1nc(-c2cccc(N3CCC(N[C@@H]4CCOC4)CC3)c2)cs1` here?
A: 0.567%

Q: Which cytotoxicity at 70.5 h does the source give for `COCCc1noc(CN2CCC3(CCCO3)CCC2=O)n1` (stereo unspecified) here?
A: 15.5%

Q: With `NC(=O)NCC(=O)N1CCC2(CC1)c1ccccc1CC2O` (stereo unspecified) as the compound, how does the cytotoxicity at 70.5 h read?
A: -11.6%

Q: Which cytotoxicity at 70.5 h does the source give for `Cc1noc(-c2ccc(N(C)Cc3cccnc3)nc2)n1` here?
A: -15.4%

Q: Which cytotoxicity at 70.5 h does the source give for `CCn1cc(NC(=O)c2cccc(CN3C[C@@H](C)O[C@@H](C)C3)c2)nn1` here?
A: 4.2%

Q: For `CCN1CCN(C(=O)c2cc(-c3ccc(C)o3)n[nH]2)[C@H]2CS(=O)(=O)C[C@H]21`, which cytotoxicity at 70.5 h is on record?
A: 42.7%

Q: For `CC(C)(C)c1ncc2c(n1)CN(c1cc(NCCO)nc(N)n1)C2`, which cytotoxicity at 70.5 h is on record?
A: -12%

Q: Which cytotoxicity at 70.5 h does the source give for `COc1ccc(N2CCC(N(C)C(C)C(=O)N(C)C)CC2)cc1` (stereo unspecified) here?
A: 15.1%

Q: Which cytotoxicity at 70.5 h does the source give for `CNc1cc(-c2nc(CCN3CCCC3=O)no2)ccn1` here?
A: 12.1%

Q: Which cytotoxicity at 70.5 h does the source give for `COCC1CCCCN1C(=O)c1cc(-c2cccc(OC)c2)n[nH]1` (stereo unspecified) here?
A: -6.73%

Q: For `N#Cc1cccc(N2CCC3(CCC(=O)N(CC(N)=O)C3)CC2)n1`, which cytotoxicity at 70.5 h is on record?
A: -8.42%

Q: Which cytotoxicity at 70.5 h does the source give for `COc1cccc2c1OCC(C(=O)NCc1c(C)noc1C)C2` (stereo unspecified) here?
A: -7.18%

Q: With `O[C@]12CCNC[C@H]1CN(c1ccnc3ccccc13)CC2` as the compound, how does the cytotoxicity at 70.5 h read?
A: 22.4%

Q: For `CCn1c(N)nc2cc(C(=O)N3CCC(N4CCCC4)CC3)cnc21`, which cytotoxicity at 70.5 h is on record?
A: -5.99%

Q: For `CC(C)c1cc(C(=O)N2CCN(CC3CC3)[C@@H]3CS(=O)(=O)C[C@@H]32)on1`, which cytotoxicity at 70.5 h is on record?
A: -0.581%

Q: Which cytotoxicity at 70.5 h does the source give for `Cn1ccnc1CN1CCCC(CO)(CCc2ccccc2)C1` (stereo unspecified) here?
A: -8.1%

Q: Which cytotoxicity at 70.5 h does the source give for `CCC(NC(=O)c1coc(COc2cccc(F)c2F)n1)C(=O)NC` (stereo unspecified) here?
A: -9.68%

Q: Which cytotoxicity at 70.5 h does the source give for `CC(=O)NCCNc1nccc(CCC(F)(F)F)n1` here?
A: -10.3%

Q: With `CCCC1(CO)CCCN(C(=O)CNC(C)=O)C1` (stereo unspecified) as the compound, how does the cytotoxicity at 70.5 h read?
A: -10.4%

Q: Which cytotoxicity at 70.5 h does the source give for `Cc1nnsc1CN(C)C(=O)CN1CC2(CCNCC2)OC1=O` here?
A: -2.76%

Q: With `CCSCC(C)NCc1ccccc1-n1ccnc1` (stereo unspecified) as the compound, how does the cytotoxicity at 70.5 h read?
A: -2.53%

Q: For `CN1CCC(c2nnc(CN3CCCC3)n2C2CC2)CC1`, which cytotoxicity at 70.5 h is on record?
A: -6.39%

Q: For `COc1ccc(C)cc1S(=O)(=O)N[C@H]1CN(C(C)=O)C[C@@H]1C1CC1`, which cytotoxicity at 70.5 h is on record?
A: -7.75%

Q: For `Cc1cc(N2CCC(O)(CN(C)C)C2)c2cc3c(cc2n1)OCO3` (stereo unspecified), which cytotoxicity at 70.5 h is on record?
A: 44.8%

Q: With `Cc1ccc(OC2(C(=O)O)CCN(C(=O)CCc3ccco3)CC2)cc1` as the compound, how does the cytotoxicity at 70.5 h read?
A: -3.25%

Q: Which cytotoxicity at 70.5 h does the source give for `COCc1cc(NCCc2ccc(S(N)(=O)=O)cc2)n2nccc2n1` here?
A: -20.7%

Q: For `CCc1cnc(C)nc1N1CCN(C(N)=O)CC1`, which cytotoxicity at 70.5 h is on record?
A: -12.6%

Q: Which cytotoxicity at 70.5 h does the source give for `Cc1ccc2nc(CNCCCN3CCCC3=O)cc(O)c2c1` here?
A: 14.6%

Q: For `Cc1ccc(Cl)c(C)c1NC(=O)N1CCCN(Cc2ccccn2)CC1`, which cytotoxicity at 70.5 h is on record?
A: 2.01%

Q: For `COc1ccc(Cl)cc1NCCC(=O)NCCNc1cnccn1`, which cytotoxicity at 70.5 h is on record?
A: 3.74%

Q: With `CC(C)C(=O)NS(=O)(=O)c1ccc(C#N)cc1C(F)(F)F` as the compound, how does the cytotoxicity at 70.5 h read?
A: -2.54%

Q: With `COc1cccc2cc(CNCc3ccc(N4CCCC4)nc3)oc12` as the compound, how does the cytotoxicity at 70.5 h read?
A: 16%

Q: For `Cc1noc(C(C)N2CCN(CCN3CCCC3=O)CC2)n1` (stereo unspecified), which cytotoxicity at 70.5 h is on record?
A: -4.25%

Q: For `Cc1ccc(N2CCCN(C(=O)CC3C=CCC3)CC2)nn1` (stereo unspecified), which cytotoxicity at 70.5 h is on record?
A: -4.92%

Q: For `Cc1nc(N2CCN(C(=O)c3ccccc3)CC2)c2cnn(C)c2n1`, which cytotoxicity at 70.5 h is on record?
A: -0.834%

Q: Which cytotoxicity at 70.5 h does the source give for `CC(C)C(C(=O)N1CCCN(c2cccnn2)CC1)n1cncn1` (stereo unspecified) here?
A: 4.13%

Q: With `Cc1noc(CN(C)Cc2ccc3c(c2)OCO3)n1` as the compound, how does the cytotoxicity at 70.5 h read?
A: 12.4%

Q: With `CCNC(=O)NC(=O)CNC(C)(C)c1ccc2c(c1)OCCO2` as the compound, how does the cytotoxicity at 70.5 h read?
A: -5.69%

Q: Which cytotoxicity at 70.5 h does the source give for `CC(C)(NCC(=O)NCC1CC1)c1ccc2c(c1)OCCO2` here?
A: 15.5%

Q: Which cytotoxicity at 70.5 h does the source give for `Cc1noc(C)c1CN1CCC(N(C)Cc2nnc(C3CC3)n2C)C1` (stereo unspecified) here?
A: -2.84%

Q: With `Cc1nnc(C(C)N2CCCN(Cc3ccc(C#N)cc3)CC2)o1` (stereo unspecified) as the compound, how does the cytotoxicity at 70.5 h read?
A: -2.73%

Q: For `Cc1cnn(CC2CCCN2Cc2nnc(C)o2)c1` (stereo unspecified), which cytotoxicity at 70.5 h is on record?
A: -2.26%

Q: Which cytotoxicity at 70.5 h does the source give for `COc1ccccc1N1CCC(CNS(=O)(=O)c2cccc(C#N)c2)C1` (stereo unspecified) here?
A: 22.7%

Q: With `Cc1nnc(C(C)N2CCN(Cc3ccc(C(F)(F)F)cc3)CC2)o1` (stereo unspecified) as the compound, how does the cytotoxicity at 70.5 h read?
A: -1.82%

Q: For `c1ccc(Cc2nnc(CN3CCCCC3Cn3cncn3)o2)cc1` (stereo unspecified), which cytotoxicity at 70.5 h is on record?
A: 0.659%

Q: With `CCc1noc(CN(Cc2ccc3c(c2)OCO3)C2CCCC2)n1` as the compound, how does the cytotoxicity at 70.5 h read?
A: -10.9%

Q: For `Cc1cccc(-c2noc(CN3CCOCC3C)n2)c1` (stereo unspecified), which cytotoxicity at 70.5 h is on record?
A: -5.27%

Q: For `CC(C)c1nnc(CN2CCCC(c3cc(C(N)=O)[nH]n3)C2)o1` (stereo unspecified), which cytotoxicity at 70.5 h is on record?
A: 26.9%

Q: With `CC(C(=O)Nc1ccc(N2CCOCC2)nc1)n1cncn1` (stereo unspecified) as the compound, how does the cytotoxicity at 70.5 h read?
A: 23.7%

Q: For `Cc1nc(C)n(CC2CCCN(Cc3ccc(F)cc3C#N)C2)n1` (stereo unspecified), which cytotoxicity at 70.5 h is on record?
A: -1.49%

Q: With `Cc1cc(C)n(C2CCCN(C(=O)CCc3nccs3)C2)n1` (stereo unspecified) as the compound, how does the cytotoxicity at 70.5 h read?
A: 28.2%

Q: With `CC1COCCN1Cc1nc(-c2ccc(Br)s2)no1` (stereo unspecified) as the compound, how does the cytotoxicity at 70.5 h read?
A: 1.52%

Q: With `Cc1nn(C)c(Cl)c1C1CCCN1C(=O)c1cc(C2CC2)on1` (stereo unspecified) as the compound, how does the cytotoxicity at 70.5 h read?
A: 3.63%

Q: For `COc1c(CNCc2cccc(Cn3ccnc3C)c2)c(C)nn1C`, which cytotoxicity at 70.5 h is on record?
A: 13.2%
